Laboratory results: BindingDB's records for PubMed 3016248 (The Johns Hopkins University, 1986)
Several values for one entry are separate records, joined by “and”; a condition that tells them apart may be missing. Identical values can stand only once.

Biological target: Glutamate receptor ionotropic, NMDA 1 (Rattus norvegicus, UniProt P35439)

CC1(C2(C)COC(c3ccccc3)(c3ccccc3)O2)CCCCN1 (stereo unspecified) [CAS_4792-18-1]
Ki: 2220 nM and 2340 nM and > 10000 nM and 3790 nM
